Results reported in ChEMBL document CHEMBL4806959, “Antagonistic peptides for frizzled-1 and frizzled-2” (2015).
Calls of active or inactive are those of the source. Residues, ends and D or L forms follow the SMILES beside them.

Tests used:
[1] = target: Frizzled-1 (Rattus norvegicus) (UniProt Q08463); assay: Antagonist activity at Wnt3a-stimulated rat frizzled-1 expressed in CHO cells up to 10 uM incubated for 24 hrs by luciferase reporter gene assay; assay type: cell-based; conditions: dose microM <=10, time 24.0 hrs
Chain of Frizzled-1 (Rattus norvegicus) (Q08463 whole entry): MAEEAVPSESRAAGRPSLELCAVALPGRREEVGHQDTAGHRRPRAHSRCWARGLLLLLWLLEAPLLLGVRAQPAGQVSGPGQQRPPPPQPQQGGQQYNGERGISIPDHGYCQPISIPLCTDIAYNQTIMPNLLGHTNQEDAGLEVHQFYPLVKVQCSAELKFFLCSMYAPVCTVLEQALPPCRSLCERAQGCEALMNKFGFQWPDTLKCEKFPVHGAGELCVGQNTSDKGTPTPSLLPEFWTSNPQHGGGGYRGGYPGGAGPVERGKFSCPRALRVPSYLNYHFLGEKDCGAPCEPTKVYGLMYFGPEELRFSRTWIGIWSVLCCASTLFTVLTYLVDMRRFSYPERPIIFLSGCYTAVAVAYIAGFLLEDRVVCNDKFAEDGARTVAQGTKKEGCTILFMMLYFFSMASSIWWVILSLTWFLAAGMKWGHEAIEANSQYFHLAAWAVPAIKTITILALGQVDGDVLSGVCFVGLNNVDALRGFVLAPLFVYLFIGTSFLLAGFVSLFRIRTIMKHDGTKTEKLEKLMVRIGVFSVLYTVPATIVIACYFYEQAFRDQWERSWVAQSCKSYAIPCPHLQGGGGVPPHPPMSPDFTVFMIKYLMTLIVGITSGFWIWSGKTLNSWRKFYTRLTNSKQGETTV

[2] = target: Frizzled-1 (Homo sapiens) (UniProt Q9UP38); assay: Antagonist activity at Wnt3a-stimulated frizzled-1 (unknown origin) expressed in human HEK293superTOP flash cells at 10 nM incubated for 24 hrs by luciferase reporter gene assay; assay type: functional, cell-based; conditions: HEK293
Chain of Frizzled-1 (Homo sapiens) (Q9UP38 70-647 limits assumed): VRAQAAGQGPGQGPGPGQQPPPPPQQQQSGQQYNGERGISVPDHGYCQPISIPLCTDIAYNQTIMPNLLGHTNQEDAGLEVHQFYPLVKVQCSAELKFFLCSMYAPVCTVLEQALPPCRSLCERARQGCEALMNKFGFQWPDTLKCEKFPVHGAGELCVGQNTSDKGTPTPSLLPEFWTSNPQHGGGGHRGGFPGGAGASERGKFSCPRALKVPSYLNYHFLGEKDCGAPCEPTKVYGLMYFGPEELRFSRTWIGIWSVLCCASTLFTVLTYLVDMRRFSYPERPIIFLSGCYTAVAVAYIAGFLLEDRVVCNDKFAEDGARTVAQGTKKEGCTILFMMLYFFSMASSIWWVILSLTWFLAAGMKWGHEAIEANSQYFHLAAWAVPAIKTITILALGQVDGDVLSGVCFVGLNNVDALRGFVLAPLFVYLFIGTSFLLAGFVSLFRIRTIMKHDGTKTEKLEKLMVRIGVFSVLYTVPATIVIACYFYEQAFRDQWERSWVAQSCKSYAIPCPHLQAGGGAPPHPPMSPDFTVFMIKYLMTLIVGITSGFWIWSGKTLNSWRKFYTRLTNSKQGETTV

Frizzled-2 = Frizzled-2 (Homo sapiens, UniProt Q14332); assay: Antagonist activity at Wnt3a-stimulated frizzled-2 (unknown origin) expressed in human HEK293superTOP flash cells at 10 nM incubated for 24 hrs by luciferase reporter gene assay; assay type: functional, cell-based; conditions: HEK293
Chain of Frizzled-2 (Q14332 24-565 limits assumed): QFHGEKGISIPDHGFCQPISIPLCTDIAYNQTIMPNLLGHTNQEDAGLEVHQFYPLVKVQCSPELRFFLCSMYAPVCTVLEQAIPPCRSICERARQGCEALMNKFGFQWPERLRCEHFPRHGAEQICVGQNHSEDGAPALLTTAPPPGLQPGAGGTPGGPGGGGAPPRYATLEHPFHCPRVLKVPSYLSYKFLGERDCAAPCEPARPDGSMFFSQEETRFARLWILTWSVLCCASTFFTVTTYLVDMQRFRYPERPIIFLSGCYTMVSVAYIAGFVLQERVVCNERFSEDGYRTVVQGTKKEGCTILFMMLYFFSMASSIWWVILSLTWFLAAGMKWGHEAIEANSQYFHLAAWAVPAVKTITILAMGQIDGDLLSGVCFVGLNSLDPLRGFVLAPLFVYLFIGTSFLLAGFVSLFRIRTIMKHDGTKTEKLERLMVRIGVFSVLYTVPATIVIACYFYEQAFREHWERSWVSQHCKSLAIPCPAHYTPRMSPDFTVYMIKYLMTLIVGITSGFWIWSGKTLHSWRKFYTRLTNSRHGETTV

[3] = target: Frizzled-1 (Rattus norvegicus) (UniProt Q08463); assay: Antagonist activity at Wnt3a-stimulated rat frizzled-1 expressed in African green monkey COS7 cells up to 10 uM incubated for 24 hrs by luciferase reporter gene assay; assay type: cell-based; conditions: dose microM <=10, time 24.0 hrs
[4] = target: Frizzled-2 (Rattus norvegicus) (UniProt Q08464); assay: Antagonist activity at Wnt3a-stimulated rat frizzled-2 expressed in CHO cells up to 10 uM incubated for 24 hrs by luciferase reporter gene assay; assay type: cell-based; conditions: dose microM <=10, time 24.0 hrs
Chain of Frizzled-2 (Rattus norvegicus) (Q08464 29-570 limits assumed): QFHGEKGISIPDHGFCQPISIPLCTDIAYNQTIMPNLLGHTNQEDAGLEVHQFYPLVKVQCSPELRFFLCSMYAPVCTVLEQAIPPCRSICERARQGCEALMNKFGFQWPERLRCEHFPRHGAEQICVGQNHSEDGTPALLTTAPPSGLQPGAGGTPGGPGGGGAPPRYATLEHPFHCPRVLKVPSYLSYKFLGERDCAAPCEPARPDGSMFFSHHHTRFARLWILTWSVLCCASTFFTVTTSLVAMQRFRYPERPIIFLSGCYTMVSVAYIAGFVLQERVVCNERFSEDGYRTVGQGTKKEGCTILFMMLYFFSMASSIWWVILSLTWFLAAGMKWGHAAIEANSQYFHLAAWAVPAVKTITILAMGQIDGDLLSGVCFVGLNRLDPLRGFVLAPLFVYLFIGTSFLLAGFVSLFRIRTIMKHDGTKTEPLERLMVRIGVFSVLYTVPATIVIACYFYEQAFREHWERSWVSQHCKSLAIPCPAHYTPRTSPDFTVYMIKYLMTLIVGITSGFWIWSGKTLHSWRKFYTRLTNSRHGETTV

[5] = target: Frizzled-2 (Rattus norvegicus) (UniProt Q08464); assay: Antagonist activity at Wnt3a-stimulated rat frizzled-2 expressed in African green monkey COS7 cells up to 10 uM incubated for 24 hrs by luciferase reporter gene assay; assay type: cell-based; conditions: dose microM <=10, time 24.0 hrs

Measured: inhibition

CSCC[C@H](NC(=O)CNC(=O)[C@H](CCC(=O)O)NC(=O)[C@H](CO)NC(=O)[C@@H](NC(=O)[C@H](CCCCN)NC(=O)[C@H](CC(N)=O)NC(=O)[C@H](C)NC(C)=O)[C@@H](C)O)C(=O)N[C@@H](CC(=O)O)C(=O)NCC(=O)N[C@@H](CS)C(=O)N[C@@H](CCC(=O)O)C(=O)N[C@@H](CC(C)C)C(N)=O (Ac-ANKTSEGMDGCEL-NH2)
inactive: all assays above

CSCC[C@H](NC(=O)CNC(=O)[C@H](CCC(=O)O)NC(=O)[C@H](CO)NC(=O)[C@@H](NC(=O)[C@H](CCCCN)NC(=O)[C@H](C)NC(=O)[C@H](CS)NC(C)=O)[C@@H](C)O)C(=O)N[C@@H](CC(=O)O)C(=O)NCC(=O)N[C@@H](CS)C(=O)N[C@@H](CCC(=O)O)C(=O)N[C@@H](CC(C)C)C(N)=O (Ac-CAKTSEGMDGCEL-NH2)
inactive: all assays above

CSCC[C@H](NC(=O)CNC(=O)[C@H](CCC(=O)O)NC(=O)[C@H](CO)NC(=O)[C@@H](NC(=O)[C@H](C)NC(=O)[C@H](CC(N)=O)NC(=O)[C@H](CS)NC(C)=O)[C@@H](C)O)C(=O)N[C@@H](CC(=O)O)C(=O)NCC(=O)N[C@@H](CS)C(=O)N[C@@H](CCC(=O)O)C(=O)N[C@@H](CC(C)C)C(N)=O (Ac-CNATSEGMDGCEL-NH2)
inactive: all assays above

CSCC[C@H](NC(=O)[C@H](C)NC(=O)[C@H](CCC(=O)O)NC(=O)[C@H](CO)NC(=O)[C@H](C)NC(=O)[C@H](CCCCN)NC(=O)[C@H](CC(N)=O)NC(=O)[C@H](CS)NC(C)=O)C(=O)N[C@@H](C)C(=O)NCC(=O)N[C@@H](CS)C(=O)N[C@@H](CCC(=O)O)C(=O)N[C@@H](CC(C)C)C(N)=O (Ac-CNKASEAMAGCEL-NH2)
inactive: all assays above

CSCC[C@H](NC(=O)CNC(=O)[C@H](CCC(=O)O)NC(=O)[C@H](CO)NC(=O)[C@H](C)NC(=O)[C@H](CCCCN)NC(=O)[C@H](CC(N)=O)NC(=O)[C@H](CS)NC(C)=O)C(=O)N[C@@H](CC(=O)O)C(=O)NCC(=O)N[C@@H](CS)C(=O)N[C@@H](CCC(=O)O)C(=O)N[C@@H](CC(C)C)C(N)=O (Ac-CNKASEGMDGCEL-NH2)
inactive: all assays above

CSCC[C@H](NC(=O)CNC(=O)[C@H](CCC(=O)O)NC(=O)[C@H](C)NC(=O)[C@@H](NC(=O)[C@H](CCCCN)NC(=O)[C@H](CC(N)=O)NC(=O)[C@H](CS)NC(C)=O)[C@@H](C)O)C(=O)N[C@@H](CC(=O)O)C(=O)NCC(=O)N[C@@H](CS)C(=O)N[C@@H](CCC(=O)O)C(=O)N[C@@H](CC(C)C)C(N)=O (Ac-CNKTAEGMDGCEL-NH2)
inactive: all assays above

CSCC[C@H](NC(=O)CNC(=O)[C@H](C)NC(=O)[C@H](CO)NC(=O)[C@@H](NC(=O)[C@H](CCCCN)NC(=O)[C@H](CC(N)=O)NC(=O)[C@H](CS)NC(C)=O)[C@@H](C)O)C(=O)N[C@@H](CC(=O)O)C(=O)NCC(=O)N[C@@H](CS)C(=O)N[C@@H](CCC(=O)O)C(=O)N[C@@H](CC(C)C)C(N)=O (Ac-CNKTSAGMDGCEL-NH2)
inactive: all assays above

CSCC[C@H](NC(=O)[C@H](C)NC(=O)[C@H](CCC(=O)O)NC(=O)[C@H](CO)NC(=O)[C@@H](NC(=O)[C@H](CCCCN)NC(=O)[C@H](CC(N)=O)NC(=O)[C@H](CS)NC(C)=O)[C@@H](C)O)C(=O)N[C@@H](CC(=O)O)C(=O)NCC(=O)N[C@@H](CS)C(=O)N[C@@H](CCC(=O)O)C(=O)N[C@@H](CC(C)C)C(N)=O (Ac-CNKTSEAMDGCEL-NH2)
inactive: all assays above

CC(=O)N[C@@H](CS)C(=O)N[C@@H](CC(N)=O)C(=O)N[C@@H](CCCCN)C(=O)N[C@H](C(=O)N[C@@H](CO)C(=O)N[C@@H](CCC(=O)O)C(=O)NCC(=O)N[C@@H](C)C(=O)N[C@@H](CC(=O)O)C(=O)NCC(=O)N[C@@H](CS)C(=O)N[C@@H](CCC(=O)O)C(=O)N[C@@H](CC(C)C)C(N)=O)[C@@H](C)O (Ac-CNKTSEGADGCEL-NH2)
inactive: all assays above

CSCC[C@H](NC(=O)CNC(=O)[C@H](CCC(=O)O)NC(=O)[C@H](CO)NC(=O)[C@@H](NC(=O)[C@H](CCCCN)NC(=O)[C@H](CC(N)=O)NC(=O)[C@H](CS)NC(C)=O)[C@@H](C)O)C(=O)N[C@@H](C)C(=O)NCC(=O)N[C@@H](CS)C(=O)N[C@@H](CCC(=O)O)C(=O)N[C@@H](CC(C)C)C(N)=O (Ac-CNKTSEGMAGCEL-NH2)
inactive: all assays above

CSCC[C@H](NC(=O)CNC(=O)[C@H](CCC(=O)O)NC(=O)[C@H](CO)NC(=O)[C@@H](NC(=O)[C@H](CCCCN)NC(=O)[C@H](CC(N)=O)NC(=O)[C@H](CS)NC(C)=O)[C@@H](C)O)C(=O)N[C@@H](CC(=O)O)C(=O)N[C@@H](C)C(=O)N[C@@H](CS)C(=O)N[C@@H](CCC(=O)O)C(=O)N[C@@H](CC(C)C)C(N)=O (Ac-CNKTSEGMDACEL-NH2)
inactive: all assays above

CSCC[C@H](NC(=O)CNC(=O)[C@H](CCC(=O)O)NC(=O)[C@H](CO)NC(=O)[C@@H](NC(=O)[C@H](CCCCN)NC(=O)[C@H](CC(N)=O)NC(=O)[C@H](CS)NC(C)=O)[C@@H](C)O)C(=O)N[C@@H](CC(=O)O)C(=O)NCC(=O)N[C@@H](C)C(=O)N[C@@H](CCC(=O)O)C(=O)N[C@@H](CC(C)C)C(N)=O (Ac-CNKTSEGMDGAEL-NH2)
inactive: all assays above
